Active and inactive are the calls of the source. No rule for the calls is given here.
The molecules below were run against glucose-6-phosphate dehydrogenase-6-phosphogluconolactonase (Plasmodium falciparum 3D7) (assay: inhibition of P. falciparum G6PD activity – biochemical, end-point NADPH detection, orthogonal assay, dose response (AID 540252)). Conditions: purified PfG6PD enzyme, NADPH direct detection.
In the case of `COc1ccc(C(=O)ON=C2C=C(C)C(=O)C(C)=C2)cc1`, the IC50 is reported as > 80 µM (inactive). For `CN1C(=O)C(N=Nc2ccc([N+](=O)[O-])cc2)SC1=S` (stereo unspecified), the IC50 was > 80 µM (inactive). For `CC(=O)Nc1cc(OC(C)=O)c2nonc2c1OC(C)=O`, the IC50 was > 80 µM (inactive). In the case of `O=C1NC(=S)NC(=O)C1=Cc1ccc(Br)s1`, the IC50 is reported as > 80 µM (inactive). `COC1=C(OC)C(=O)C(Sc2ccc3ccccc3c2)=CC1=O` showed an IC50 of 30.2 µM. With `CCOc1ccc(Cl)cc1/C=N/NC(N)=O` the IC50 was > 80 µM (inactive). Work on `O=c1c2ccccc2sn1-c1ccc(Cl)cc1Cl` yielded an IC50 of 16.9 µM. For `CCOc1cc(CNc2ccc(N3CCCC3)cc2)cc(Cl)c1OC`, the IC50 was > 80 µM (inactive). With `Cc1ccc(/C=C/C(=O)Nc2ccc([N+](=O)[O-])c(NC(=O)/C=C/c3ccc(C)o3)c2)o1` the IC50 was 33.6 µM. With `CC1(OC(=O)C2CCCC2)C(=O)C=C2C=C(c3ccsc3)N(CC3CC3)C=C2C1=O` (stereo unspecified) the IC50 was > 80 µM (inactive). In the case of `CCOC(=O)CSc1nnc(NC(=O)c2cccc([N+](=O)[O-])c2)s1`, the IC50 is reported as > 80 µM (inactive). `O=C(COc1cccc2ccccc12)Nc1ccc(Cl)cc1C(=O)O` was tested, and the IC50 was > 80 µM (inactive). For `Cc1ccc2nc(SCC(=O)N/N=C/c3ccco3)cc(C)c2c1`, the IC50 was > 80 µM (inactive). In the case of `CCN(CC)CCNC(=O)CCCCn1c(=S)[nH]c2c([nH]c3ccc(OC)cc32)c1=O`, the IC50 is reported as > 80 µM (inactive). `Oc1ccc(/C=N/N=C(c2ccccc2)c2ccccc2)c(O)c1O` gave an IC50 of 67.4 µM. In the case of `O=C(O)c1ccc(-n2c(-c3cc(-c4ccco4)[nH]n3)n[nH]c2=S)cc1`, the IC50 is reported as > 80 µM (inactive). For `Cc1cc(C)c2c(=O)n(CC(=O)Nc3cccc(F)c3)sc2n1`, the IC50 was > 80 µM (inactive). `Cc1ccc(C(=O)Nc2nnc(S(=O)(=O)N3CCC(C)CC3)s2)cc1` was tested, and the IC50 was > 80 µM (inactive). For `O=c1[nH]c2ccccc2n2c(-c3ccccc3)nnc12`, the IC50 was > 80 µM (inactive). In the case of `COc1cc(NCc2ccccc2)c2ncn(C(C)C)c2c1`, the IC50 is reported as > 80 µM (inactive). With `Oc1cc(-n2cccn2)c(O)cc1-n1cccn1` the IC50 was > 80 µM (inactive). `O=c1ccsn1Cc1ccccc1` gave an IC50 of 55.8 µM. In the case of `N#CC1=C(N)Oc2c(O)cc3ccccc3c2C1c1ccsc1` (stereo unspecified), the IC50 is reported as > 80 µM (inactive). `Cc1cccc(C(=O)Nc2sc3c(c2C(=O)O)CCCC3)c1` was tested, and the IC50 was > 80 µM (inactive). Work on `CC(C)(C)c1ccc(O)c(O)c1` yielded an IC50 of 54.8 µM. `CCOC(=O)c1ccc(/[N+]([O-])=C/c2ccccc2)cc1` was tested, and the IC50 was > 80 µM (inactive). `COc1ccc(OC)c2c1C(=O)C(Cl)=C(Cl)C2=O` was tested, and the IC50 was 23.3 µM. `O=C1C=CC(=O)N1c1ccc(N2CCCCC2)cc1` was tested, and the IC50 was 38 µM. In the case of `O=C(Nc1nnc(S(=O)(=O)N2CCCCC2)s1)c1cccc(Br)c1`, the IC50 is reported as > 80 µM (inactive). `O=C(Nc1nnc(C2CC2)s1)c1ccc(Cl)nc1` was tested, and the IC50 was > 80 µM (inactive). For `O=c1c2cc([N+](=O)[O-])ccc2sn1-c1ccccc1`, the IC50 was 13.9 µM. For `COc1ccc(N2CSC3=C(C#N)C(c4cc(OC)c(OC)cc4OC)CC(=O)N3C2)c(OC)c1` (stereo unspecified), the IC50 was > 80 µM (inactive). For `CC1=NOC(=O)/C1=C\c1ccc(-c2ccccc2Br)o1`, the IC50 was > 80 µM (inactive). `COC(=O)CCC(=O)OC1(C)C(=O)C2=CN(c3ccc(OC)cc3)C(c3ccc(OC)cc3)=CC2=C(Br)C1=O` (stereo unspecified) was tested, and the IC50 was > 80 µM (inactive). With `CC(SCC(=O)Nc1ccccc1)c1nc2ccccc2c(=O)[nH]1` (stereo unspecified) the IC50 was > 80 µM (inactive). `O=C(CNC(=O)c1cccs1)NCC(=O)OCC(=O)c1ccc([N+](=O)[O-])cc1` gave an IC50 of 67.9 µM. `O=C(CCC(=O)OCC(=O)c1ccc([N+](=O)[O-])cc1)Nc1ccccc1Cl` gave an IC50 of 53 µM. With `Cc1cc(C)c(NC(=S)NCC2CCN(C(C)c3ccccc3)C2)c(C)c1` (stereo unspecified) the IC50 was 64.1 µM. `NC(=O)N/N=C/c1ccc(-n2nncc2-c2ccc(Cl)cc2)cc1` was tested, and the IC50 was > 80 µM (inactive). For `COc1cc(/C=N/n2cc(-c3ccccc3)[nH]c2=S)cc(OC)c1O`, the IC50 was > 80 µM (inactive). For `CC(NC1=CC(=O)c2cccnc2C1=O)C(O)c1ccccc1` (stereo unspecified), the IC50 was > 80 µM (inactive). In the case of `C=C1C(=O)O[C@@H]2C[C@@H](C)[C@@H]3C=CC(=O)[C@@]3(C)[C@@H](OC(=O)CC(=O)O[C@H]3[C@@H]4C(=C)C(=O)O[C@@H]4C[C@@H](C)[C@@H]4C=CC(=O)[C@]43C)[C@H]12`, the IC50 is reported as > 80 µM (inactive). `Cc1ccc(SC2=C(Sc3ccc(C)cc3)C(=O)c3ccccc3C2=O)cc1` was tested, and the IC50 was > 80 µM (inactive). In the case of `CCOc1ccccc1C=NNC(=O)CCCCC(=O)NN=Cc1ccccc1OCC`, the IC50 is reported as > 80 µM (inactive). `CCN1CCCC1CNC(=O)c1ccc2c(c1)NC(=O)/C(=C\c1ccccc1Cl)S2` (stereo unspecified) was tested, and the IC50 was > 80 µM (inactive). With `Cc1ccc(/C=C/C(=O)NCCc2cccc(Cl)c2)o1` the IC50 was > 80 µM (inactive). In the case of `CC(=O)Nc1ccc(S(=O)(=O)NNc2cccc(C)c2)cc1`, the IC50 is reported as > 80 µM (inactive). In the case of `CC1CN(c2ccccc2)NC1=O` (stereo unspecified), the IC50 is reported as > 80 µM (inactive). For `Nc1c(C(=O)Nc2ccc(F)cc2)sc(=S)n1-c1ccccc1F`, the IC50 was > 80 µM (inactive). `Cc1ccc(NC2=C(NC(=O)c3ccccc3)C(=O)c3ccccc3C2=O)cc1Cl` was tested, and the IC50 was > 80 µM (inactive). With `c1ccc(-c2cn3c(n2)CCc2ccc4cccnc4c2-3)cc1` the IC50 was > 80 µM (inactive).
